Test system: spleen cells±ConA
Assay: Proliferation responses of splenocytes ±Con A, [3H]thymidine incorporation
Format: cell-based, mice
Details: for Con A1 / Con A2 / No Con A: incorporated radioactivity
Description: Spleen cells obtained from native or concanavalin A (Con A)-treated mice were examined in-vitro for their response to T-cell-dependent mitogens. Cells were plated in quadruplicate in 96-well, flat-bottom, microtiter plates (4×10^5 cells/0.2 ml/well) in RPMI-1640 medium supplemented with 5% heat inactivated FCS, 2 mM L-glutamine, 100 U/ml penicillin, […] streptomycin and various concentrations of compound 10 ([…]). All plates were incubated for 48 h in humidified atmosphere of 5% CO2 in air at 37° C., and then pulsed for 18 h with […] ^3[H] thymidine. Cells from each microculture were harvested on fiberglass filters using a multiharvester, and incorporated radioactivity was measured using standard scintillation techniques.

CC(CO)COCC(C)OCC(C)OCC(C)OCC(C)OCC(C)OCC(C)OCC(C)OCC(C)OCC(C)OCC(C)OCC(C)OCC(C)OCC(C)OCC(C)OCC(C)OCC(C)OCC(Cc1ccccc1)NC(=O)CCc1ccc(O)cc1 (stereo not shown) [Compound 10]
Con A1 (100 pg/ml): 1280
Con A2 (100 pg/ml): 3481
No Con A (100 pg/ml): 271
Con A1 (1 ng/ml): 733
Con A2 (1 ng/ml): 3609
No Con A (1 ng/ml): 284
Con A1 (100 ng/ml): 880
Con A2 (100 ng/ml): 2489
No Con A (100 ng/ml): 274
Con A1 (1 μg/ml): 986
Con A2 (1 μg/ml): 2156
No Con A (1 μg/ml): 333
Con A1 (100 μg/ml): 598
Con A2 (100 μg/ml): 1380
No Con A (100 μg/ml): 170
effect on the proliferation of the splenocytes (incubation with compound (Table 1)): significant inhibition

— US8309606B2, “Compounds for use in the treatment of autoimmune diseases, immuno-allergical diseases and organ or tissue transplantation rejection” (Novaremed Limited, priority 2002, dated 2012)
